Test results published in patent publication US12252524B2, “GIP/GLP1 co-agonist compounds” (Eli Lilly and Company, priority 2018, dated 2025).
Where two headings read alike, the source gives them in different places. Numbered stars: 1 amine (or outer) side, 2 acyl side, 3 side chain; on linkers, the order of the positions; unused ones are H or OH. Square brackets hold non-standard residues; d marks the D form. Side chains are listed from the residue outwards. Peptide text beside a SMILES is read from it. * marks the point of attachment. C18 diacid = O=C(O)CCCCCCCCCCCCCCCCC(=O)*; αMePhe(2-F) = C[C@](N)(Cc1ccccc1F)C(=O)O; γGlu = O=C(O)[C@H](CCC(=O)[*:2])N[*:1]; αMeL = CC(C)C[C@](C)(N)C(=O)O; Orn = NCCC[C@H](N)C(=O)O; AEEA = NCCOCCOCC(=O)O; Aib = CC(C)(N)C(=O)O

How the values were obtained:
[1] = Peptide stability in 50% v/v pig small intestinal fluid with and without protease inhibitor; format: in vitro ADME; conditions: for remaining at 0.25 h / remaining at 0.5 h / remaining at 1 h: read-out: % peptide intact
Description: A peptide is incubated at 37° C. in 1% (v/v) rat small intestinal fluid or 50% (v/v) pig small intestinal fluid with and without a peptidase inhibitor. At different time points, samples are taken out, followed by quenching with 1% TFA in 50% ACN/water to stop the enzyme activity. The intact peptide at different time points is analyzed by high-performance liquid chromatography (HPLC) equipped with an ultraviolet (UV) detector or LC-MS/MS and normalized to the amount of peptide before mixing with the enzyme solution.

[2] = Proteolytic stability assay in 90% pig small intestinal fluid (pSIF); format: in vitro ADME; conditions: 90% pSIF, 37° C.
Description: Peptides are diluted to a concentration of 0.4 mg/mL in 90% pig small intestinal fluid. After the mixing, 20 μL are immediately removed (time 0 for the time point of pre-incubation). The mixture is then incubated at 37° C. at 150 rpm. […] The sample is centrifuged at 20,000×g for 20 min at 4° C.
The data analysis is performed using MassLynx.

[3] = pH 8, with rSBTI (5 mg/mL), protease inhibitor, rSBTI (5 mg/mL), 15 min
[4] = pH 8, with rSBTI (5 mg/mL), protease inhibitor, rSBTI (5 mg/mL), 30 min
[5] = pH 8, with rSBTI (5 mg/mL), protease inhibitor, rSBTI (5 mg/mL), 60 min

Compound	% peptide intact ([1]; no PI, control, 0 min)	remaining at 0.25 h ([1]; pH 8, no PI, control, 15 min)	remaining at 0.5 h ([1]; pH 8, no PI, control, 30 min)	remaining at 1 h ([1]; pH 8, no PI, control, 60 min)	remaining at 0.25 h [1, 3]	remaining at 0.5 h [1, 4]	remaining at 1 h [1, 5]	% peptide intact ([1]; rSBTCI (0.5 mg/mL), 0 min)	% peptide intact ([1]; rSBTCI (0.5 mg/mL), 15 min)	% peptide intact ([1]; rSBTCI (0.5 mg/mL), 30 min)	% peptide intact ([1]; rSBTCI (0.5 mg/mL), 60 min)	% peptide intact ([1]; rSBTI (5 mg/mL), 0 min)	percentage of peptide not cleaved using pSIF ([2]; 0 min)	remaining at 0.5 h, 0.4 mg/mL ([2]; pig, 90% pig small intestinal fluid (pSIF), 30 min, read-out: percentage of peptide not cleaved using pSIF)	remaining at 0.75 h, 0.4 mg/mL ([2]; pig, 90% pig small intestinal fluid (pSIF), 45 min, read-out: percentage of peptide not cleaved using pSIF)	remaining at 1 h, 0.4 mg/mL ([2]; pig, 90% pig small intestinal fluid (pSIF), 60 min, read-out: percentage of peptide not cleaved using pSIF)
CC[C@H](C)[C@H](NC(=O)[C@H](CC(C)C)NC(=O)[C@H](Cc1ccc(O)cc1)NC(=O)[C@@H](CCC(=O)O)NC(=O)[C@@H](NC(=O)[C@H](Cc1ccccc1)NC(=O)[C@H](CCC(=O)O)NC(=O)C(C)(C)NC(=O)[C@H](CCC(N)=O)NC(=O)[C@H](C)NC(=O)[C@H](CCCCNC(=O)COCCOCCNC(=O)COCCOCCNC(=O)CC[C@H](NC(=O)CCCCCCCCCCCCCCCCC(=O)O)C(=O)O)NC(=O)[C@H](CCCN)NC(=O)[C@H](CC(=O)O)NC(=O)[C@H](CC(C)C)NC(=O)[C@](C)(CC(C)C)NC(=O)[C@@H](NC(=O)[C@H](CO)NC(=O)[C@H](Cc1ccc(O)cc1)NC(=O)[C@H](CC(=O)O)NC(=O)[C@H](CO)NC(=O)[C@@H](NC(=O)[C@](C)(Cc1ccccc1F)NC(=O)[C@@H](NC(=O)CNC(=O)[C@H](CCC(=O)O)NC(=O)C(C)(C)NC(=O)[C@@H](N)Cc1ccc(O)cc1)[C@@H](C)O)[C@@H](C)O)[C@@H](C)CC)[C@@H](C)CC)C(=O)N[C@@H](CCC(=O)O)C(=O)NCC(=O)NCC(=O)N1CCC[C@H]1C(=O)N[C@@H](CO)C(=O)N[C@@H](CO)C(=O)NCC(=O)N[C@@H](C)C(=O)N1CCC[C@H]1C(=O)N1CCC[C@H]1C(=O)N1CCC[C@H]1C(=O)N[C@@H](CO)C(N)=O [Example 2] (H-Y[Aib]EGT[αMePhe(2-F)]TSDYSI[αMeL]LD[Orn]K([AEEA-AEEA-γGlu-C18 diacid])AQ[Aib]EFI[dE]YLIEGGPSSGAPPPS-NH2; N-terminus assumed)	100.00%	2.42%	1.9%	3.09%	103%	113%	87.3%	100.00%	131.71%	126.53%	123.70%	100.00%	–	–	–	–
CC[C@H](C)[C@H](NC(=O)[C@H](CC(C)C)NC(=O)[C@](C)(Cc1ccc(O)cc1)NC(=O)[C@@H](CCC(=O)O)NC(=O)[C@@H](NC(=O)[C@H](Cc1ccccc1)NC(=O)[C@H](CCC(=O)O)NC(=O)C(C)(C)NC(=O)[C@H](CCC(N)=O)NC(=O)[C@H](C)NC(=O)[C@H](CCCCNC(=O)COCCOCCNC(=O)COCCOCCNC(=O)CC[C@H](NC(=O)CCCCCCCCCCCCCCCCC(=O)O)C(=O)O)NC(=O)[C@H](CCCN)NC(=O)[C@H](CC(=O)O)NC(=O)[C@H](CC(C)C)NC(=O)[C@](C)(CC(C)C)NC(=O)[C@@H](NC(=O)[C@H](CO)NC(=O)[C@H](Cc1ccncc1)NC(=O)[C@H](CC(=O)O)NC(=O)[C@H](CO)NC(=O)[C@@H](NC(=O)[C@](C)(Cc1ccccc1F)NC(=O)[C@@H](NC(=O)CNC(=O)[C@H](CCC(=O)O)NC(=O)C(C)(C)NC(=O)[C@@H](N)Cc1ccc(O)cc1)[C@@H](C)O)[C@@H](C)O)[C@@H](C)CC)[C@@H](C)CC)C(=O)N[C@@H](CCC(=O)O)C(=O)NCC(=O)NCC(=O)N1CCC[C@H]1C(=O)N[C@@H](CO)C(=O)N[C@@H](CO)C(=O)NCC(=O)N[C@@H](C)C(=O)N1CCC[C@H]1C(=O)N1CCC[C@H]1C(=O)N1CCC[C@H]1C(=O)N[C@@H](CO)C(N)=O [Example 4]	100.00%	72.5%	41.4%	19%	97%	96.3%	88.6%	–	–	–	–	100.00%	100%	73.4%	56.4%	60%
